Experimental data: US20240208969A1, “SUBSTITUTED FUSED BICYCLIC COMPOUNDS AS PARP INHIBITORS AND THE USE THEREOF” (IMPACT THERAPEUTICS (SHANGHAI), INC., priority 2021, published 2024)

Experiments:
PARP1 = PARP1 (Homo sapiens, UniProt P09874); assay: PARP1 chemiluminescent assay; format: biochemical; settings: recombinant PARP1 enzyme activity, chemiluminescence
Experimental: (§1) Mix the solution of recombinant poly ADP ribotransferase 1 and 2 (PARP1 and PARP2) (40 ng enzyme/well) and the compounds to be tested, respectively. And then added to a 96-well plate coated with […] mixture, incubated at room temperature for 1 h. Then add 50 μL 0.3 ng/mL Streptavidin-HRP to each well. The plates were incubated for 30 minutes at room temperature. Finally, the plates were treated with streptavidin-HRP followed by addition of the ELISA ECL substrate to produce chemiluminescence that can then be measured using a chemiluminescence reader. The inhibition rate of the compound to PARP1/2 enzyme activity was calculated according to the following formula. [formula] IC50 value is obtained by fitting the s-shaped dose response curve equation by using XL Fit software. The curve equation is Y=100/(1+10^(log C−log IC50)), C is the compound concentration. Table 1 summarizes the inhibitory effects of compounds on PARP1 and PARP2 enzyme activity (IC50), wherein +++++ indicates IC50≤1 nM; ++++ indicates 1<IC50≤10 nM; +++ indicates 10 nM<IC50≤100 nM: ++ indicates 100 nM<IC50≤1 μM; + indicates IC50>1 μM.

PARP2 = PARP2 (Homo sapiens, UniProt Q9UGN5); assay: PARP2 chemiluminescent assay; format: biochemical; settings: recombinant PARP2 enzyme activity, chemiluminescence
Experimental: as §1

MDA-MB-436 cells = assay: Inhibition of proliferation of human breast cancer MDA-MB-436 cell line (CCK-8, 7 days); format: cell-based; settings: proliferation of MDA-MB-436, 7 days
How it was run: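 Cells seeded at 3000/well were treated next day with 8 serial doses (DMSO control) for 7 days at 37° C., 5% CO2, with compound medium changed on day four. CCK-8 was added for 4 hours and OD read as 450 nm minus 650 nm. IC50 came from a sigmoidal fit of survival relative to DMSO.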

Sequence of PARP2 (Q9UGN5 whole entry, species assumed): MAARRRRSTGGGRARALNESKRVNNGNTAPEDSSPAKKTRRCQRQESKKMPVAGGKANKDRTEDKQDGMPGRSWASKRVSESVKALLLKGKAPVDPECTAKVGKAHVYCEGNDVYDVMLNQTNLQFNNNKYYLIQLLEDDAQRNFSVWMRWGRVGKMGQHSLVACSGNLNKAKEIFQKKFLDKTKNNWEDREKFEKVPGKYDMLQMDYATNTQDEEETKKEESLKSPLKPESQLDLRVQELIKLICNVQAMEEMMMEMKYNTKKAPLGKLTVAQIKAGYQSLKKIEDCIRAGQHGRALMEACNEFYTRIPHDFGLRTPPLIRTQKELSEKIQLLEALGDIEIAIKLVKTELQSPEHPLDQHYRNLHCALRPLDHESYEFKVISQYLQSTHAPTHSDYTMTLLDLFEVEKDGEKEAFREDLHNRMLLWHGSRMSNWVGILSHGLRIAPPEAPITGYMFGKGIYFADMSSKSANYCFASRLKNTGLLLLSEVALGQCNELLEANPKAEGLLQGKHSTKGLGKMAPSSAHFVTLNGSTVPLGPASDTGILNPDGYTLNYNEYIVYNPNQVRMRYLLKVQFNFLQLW
Sequence of PARP1 (P09874 whole entry): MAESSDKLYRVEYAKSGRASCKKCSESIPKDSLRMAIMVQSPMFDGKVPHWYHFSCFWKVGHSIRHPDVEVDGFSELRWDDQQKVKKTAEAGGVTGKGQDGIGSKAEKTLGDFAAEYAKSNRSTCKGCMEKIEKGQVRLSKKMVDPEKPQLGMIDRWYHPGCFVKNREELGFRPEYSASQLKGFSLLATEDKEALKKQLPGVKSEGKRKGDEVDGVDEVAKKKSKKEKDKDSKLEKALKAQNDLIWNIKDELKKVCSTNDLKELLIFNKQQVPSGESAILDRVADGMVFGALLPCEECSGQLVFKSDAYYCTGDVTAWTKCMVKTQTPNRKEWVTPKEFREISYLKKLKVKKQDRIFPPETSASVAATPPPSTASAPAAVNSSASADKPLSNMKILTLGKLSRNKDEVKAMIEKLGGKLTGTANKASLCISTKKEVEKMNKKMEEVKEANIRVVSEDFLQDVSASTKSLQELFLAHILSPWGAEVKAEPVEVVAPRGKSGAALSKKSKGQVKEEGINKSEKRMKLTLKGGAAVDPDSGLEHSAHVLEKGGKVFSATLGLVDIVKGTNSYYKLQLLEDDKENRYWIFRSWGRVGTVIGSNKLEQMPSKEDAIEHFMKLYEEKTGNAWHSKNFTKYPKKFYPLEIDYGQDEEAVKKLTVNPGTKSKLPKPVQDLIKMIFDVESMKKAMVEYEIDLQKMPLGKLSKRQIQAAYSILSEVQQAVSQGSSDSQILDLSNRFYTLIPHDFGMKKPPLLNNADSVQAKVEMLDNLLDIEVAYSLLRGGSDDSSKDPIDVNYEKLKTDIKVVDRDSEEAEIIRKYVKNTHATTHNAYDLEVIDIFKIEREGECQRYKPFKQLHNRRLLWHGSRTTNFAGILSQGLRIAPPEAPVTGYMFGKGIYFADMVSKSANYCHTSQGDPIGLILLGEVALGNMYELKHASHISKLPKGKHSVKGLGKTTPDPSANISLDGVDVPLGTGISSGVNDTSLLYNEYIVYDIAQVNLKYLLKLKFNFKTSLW

SMILES	IC50 (PARP1) [nM]	IC50 (PARP2) [nM]	IC50 (MDA-MB-436 cells; Homo sapiens, 168 h) [nM]	IC50 (MDA-MB-436 cells) [nM]
CCn1c(=O)[nH]c2cc(-c3cccc(C(=O)Nc4ccc(C(=O)NC)nc4)c3)ccc2c1=O [Example 41, 5-(3-(3-ethyl-2,4-dioxo-1,2,3,4-tetrahydroquinazolin-7-yl)benzamido)-N-methylpicolinamide]	1 to 10	> 1000	> 1000	–
CNC(=O)c1ccc(NC(=O)c2cccc(-c3ccc4c(=O)n(C(C)C)c(=O)[nH]c4c3)c2)cn1 [Example 42, 5-(3-(3-isopropyl-2,4 dioxo-1,2,3,4-tetrahydroquinazolin-7-yl)benzamido)-N-methylpicolinamide]	1 to 10	> 1000	> 1000	–
CCCn1c(=O)[nH]c2cc(-c3cccc(C(=O)Nc4ccc(C(=O)NC)nc4)c3)ccc2c1=O [Example 47, 5-(3-(3-propyl-2,4-dioxo-1,2,3,4-tetrahydroquinazolin-7-yl)benzamido)-N-methylpicolinamide]	10 to 100	> 1000	> 1000	–
CCn1c(=O)[nH]c2cc(CN3CCN(c4ccc(C(=O)NC)nc4Cl)CC3)c(F)cc2c1=O [Example 61, 6-chloro-5-(4-((3-ethyl-6-fluoro-2,4-dioxo-1,2,3,4-tetrahydroquinazolin-7-yl)methyl)piperazin-1-yl)-N-methylpicolinamide]	1 to 10	> 1000	10 to 100	–
CCn1c(=O)[nH]c2cc(CN3CCN(c4ccc(C(=O)NC)nc4Cl)CC3)cc(F)c2c1=O [Example 62, 6-chloro-5-(4-((3-ethyl-5-fluoro-2,4-dioxo-1,2,3,4-tetrahydroquinazolin-7-yl)methyl)piperazin-1-yl)-N-methylpicolinamide]	1 to 10	100 to 1000	10 to 100	–
CCn1c(=O)[nH]c2cc(CN3CCN(c4ccc(C(=O)NC)nc4Cl)CC3)cc(Cl)c2c1=O [Example 63, 6-chloro-5-(4-((5-chloro-3-ethyl-2,4-dioxo-1,2,3,4-tetrahydroquinazolin-7-yl)methyl)piperazin-1-yl)-N-methylpicolinamide]	1 to 10	100 to 1000	1 to 10	–
CCn1c(=O)[nH]c2cc(CN3CCN(c4ccc(C(=O)NC)nc4C)CC3)c(F)cc2c1=O [Example 67, 5-(4-((3-ethyl-6-fluoro-2,4-dioxo-1,2,3,4-tetrahydroquinazolin-7-yl)methyl)piperazin-1-yl)-N,6-dimethylpicolinamide]	10 to 100	> 1000	100 to 1000	–
CCn1c(=O)[nH]c2cc(CN3CCN(c4ccc(C(=O)NC5CC5)nc4C)CC3)ccc2c1=O [Example 78, N-cyclopropyl-5-(4-((3-ethyl-2,4-dioxo-1,2,3,4-tetrahydroquinazolin-7-yl)methyl)piperazin-1-yl)-6-methylpicolinamide]	1 to 10	> 1000	10 to 100	–
CCNC(=O)c1ccc(N2CCN(Cc3ccc4c(=O)n(CC)c(=O)[nH]c4c3)CC2)c(Cl)n1 [Example 83, 6-chloro-N-ethyl-5-(4-((3-ethyl-2,4-dioxo-1,2,3,4-tetrahydroquinazolin-7-yl)methyl)piperazin-1-yl)picolinamide]	1 to 10	100 to 1000	10 to 100	–
CCNC(=O)c1ccc(N2CCN(Cc3ccc4c(=O)n(CC)c(=O)[nH]c4c3)CC2)c(C)n1 [Example 84, N-ethyl-5-(4-((3-ethyl-2,4-dioxo-1,2,3,4-tetrahydroquinazolin-7-yl)methyl)piperazin-1-yl)-6-methylpicolinamide]	1 to 10	> 1000	10 to 100	–
CCNC(=O)c1ccc(N2CCN(Cc3cc(F)c4c(=O)n(CC)c(=O)[nH]c4c3)CC2)c(Cl)n1 [Example 104, 6-chloro-N-ethyl-5-(4-((3-ethyl-5-fluoro-2,4-dioxo-1,2,3,4-tetrahydroquinazolin-7-yl)methyl)piperazin-1-yl)picolinamide]	1 to 10	> 1000	1 to 10	–
CCN1Cc2ccc(CN3CCN(c4ccc(C(=O)NC)nc4F)CC3)cc2NC1=O [Example 114, 5-(4-((3-ethyl-2-oxo-1,2,3,4-tetrahydroquinazolin-7-yl)methyl)piperazin-1-yl)-6-fluoro-N-methylpicolinamide]	1 to 10	> 1000	10 to 100	–
CCN1Cc2ccc(CN3CCN(c4ccc(C(=O)NC)nc4Cl)CC3)cc2NC1=O [Example 115]	1 to 10	> 1000	1 to 10	–
CCN1Cc2ccc(CN3CCN(c4ccc(C(=O)NC)nc4C)CC3)cc2NC1=O [Example 116]	1 to 10	> 1000	10 to 100	–
CCNC(=O)c1ccc(N2CCN(Cc3ccc4c(c3)NC(=O)N(CC)C4)CC2)c(C)n1 [Example 117, 5-(4-((3-ethyl-2-oxo-1,2,3,4-tetrahydroquinazolin-7-yl)methyl)piperazin-1-yl)-6-methyl-N-ethylpicolinamide]	1 to 10	> 1000	1 to 10	–
CCN1Cc2c(F)cc(CN3CCN(c4ccc(C(=O)NC)nc4C)CC3)cc2NC1=O [Example 119, 5-(4-((3-ethyl-5-fluoro-2-oxo-1,2,3,4-tetrahydroquinazolin-7-yl)methyl)piperazin-1-yl)-N,6-dimethylpicolinamide]	1 to 10	> 1000	1 to 10	–
CCn1c(=O)[nH]c2cc(CN3CCN(c4ccc(C(=O)NC5CC5)nc4F)CC3)ccc2c1=O [Example 135, N-cyclopropyl-5-(4-((3-ethyl-2,4-dioxo-1,2,3,4-tetrahydroquinazolin-7-yl)methyl)piperazin-1-yl)-6-fluoropicolinamide]	1 to 10	100 to 1000	1 to 10	–
O=C(c1cc(Cn2c(=O)[nH]c(=O)c3c(F)cccc32)ccc1F)N1CCN(c2ncccn2)CC1 [Senaparib, reference compound]	1 to 10	1 to 10	–	1 to 10
